Experimental data as given in PubChem BioAssay (NCI).
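Where inhibition never reached the appropriate level, the endpoint shown equals the highest concentration tested. Otherwise, values were interpolated linearly from a five-concentration, 48-hour dose response in 96-well plates. The concentration for 50% growth inhibition is given as GI50. The concentration for full growth arrest is given as TGI.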

Experiments:
Experiment in all cases: NCI-60 cell line screen, 48 h
[1] = test system: OVCAR-3 ovarian
[2] = test system: HT29 colon
[3] = test system: MOLT-4 leukemia
[4] = test system: ACHN renal
[5] = test system: CAKI-1 renal
[6] = test system: RXF 393 renal
[7] = test system: 786-0 renal
[8] = test system: M14 melanoma
[9] = test system: HCC-2998 colon
[10] = test system: SW-620 colon
[11] = test system: UACC-62 melanoma
[12] = test system: A498 renal
[13] = test system: NCI-H23 lung
[14] = test system: NCI-H460 lung
[15] = test system: KM12 colon
[16] = test system: EKVX NSCLC
[17] = test system: MCF7 breast
[18] = test system: A549 NSCLC
[19] = test system: U251 CNS
[20] = test system: SF-539 CNS
[21] = test system: NCI-H226 lung
[22] = test system: NCI/ADR-RES ovarian
[23] = test system: OVCAR-4 ovarian
[24] = test system: LOX IMVI melanoma
[25] = test system: RPMI-8226 leukemia
[26] = test system: SF-295 CNS
[27] = test system: SK-MEL-2 melanoma
[28] = test system: COLO 205 colon
[29] = test system: SK-MEL-5 melanoma
[30] = test system: IGROV1 ovarian
[31] = test system: CCRF-CEM leukemia
[32] = test system: MALME-3M melanoma
[33] = test system: OVCAR-5 ovarian
[34] = test system: SK-MEL-28 melanoma
[35] = test system: SNB-19 CNS
[36] = test system: NCI-H522 lung
[37] = test system: DU-145 prostate
[38] = test system: TK-10 renal
[39] = test system: HS 578T breast
[40] = test system: HCT-15 colon
[41] = test system: SNB-75 CNS
[42] = test system: HOP-62 NSCLC
[43] = test system: MDA-MB-435
[44] = test system: SN12C renal
[45] = test system: SF-268 CNS
[46] = test system: SK-OV-3 ovarian
[47] = test system: MDA-MB-231 breast
[48] = test system: T-47D breast
[49] = test system: PC-3 prostate
[50] = test system: HL-60(TB) leukemia
[51] = test system: SR leukemia
[52] = test system: UO-31 renal
[53] = test system: OVCAR-8 ovarian
[54] = test system: K-562 leukemia
[55] = test system: HCT-116 colon
[56] = test system: UACC-257 melanoma
[57] = test system: BT-549 breast
[58] = test system: HOP-92 NSCLC

CC1=C(CCC=NNC(N)=O)C2=C(C)C3(CC3)[C@@](C)(O)C(=O)C2=C1
GI50 [1]: 415 nM | TGI [1]: 3250 nM | GI50 [2]: 351 nM | TGI [2]: 1900 nM | GI50 [3]: 2790 nM | TGI [3]: 20900 nM | GI50 [4]: 250 nM | TGI [4]: 695 nM | GI50 [5]: 281 nM | TGI [5]: 2800 nM | GI50 [6]: 145 nM | TGI [6]: 306 nM | GI50 [7]: 232 nM | TGI [7]: 623 nM | GI50 [8]: 196 nM | TGI [8]: 449 nM | GI50 [9]: 350 nM | TGI [9]: 1150 nM | GI50 [10]: 5790 nM | TGI [10]: 19600 nM | GI50 [11]: 488 nM | TGI [11]: 1310 nM | GI50 [12]: 317 nM | TGI [12]: 902 nM | GI50 [13]: 174 nM | TGI [13]: 743 nM | GI50 [14]: 159 nM | TGI [14]: 3740 nM | GI50 [15]: 1640 nM | TGI [15]: 5380 nM | GI50 [16]: 1440 nM | TGI [16]: 6160 nM | GI50 [17]: 426 nM | TGI [17]: 12100 nM | GI50 [18]: 281 nM | TGI [18]: 1350 nM | GI50 [19]: 440 nM | TGI [19]: 4190 nM | GI50 [20]: 225 nM | TGI [20]: 614 nM | GI50 [21]: 421 nM | TGI [21]: 3810 nM | GI50 [22]: 420 nM | TGI [22]: 4580 nM | GI50 [23]: 439 nM | TGI [23]: 1700 nM | GI50 [24]: 457 nM | TGI [24]: 2110 nM | GI50 [25]: 5580 nM | TGI [25]: 32600 nM | GI50 [26]: 289 nM | TGI [26]: 1150 nM | GI50 [27]: 520 nM | TGI [27]: 1030 nM | GI50 [28]: 230 nM | TGI [28]: 647 nM | GI50 [29]: 231 nM | TGI [29]: 617 nM | GI50 [30]: 248 nM | TGI [30]: 1270 nM | GI50 [31]: 3930 nM | TGI [31]: 26200 nM | GI50 [32]: 316 nM | TGI [32]: 913 nM | GI50 [33]: 325 nM | TGI [33]: 1420 nM | GI50 [34]: 700 nM | TGI [34]: 2150 nM | GI50 [35]: 717 nM | TGI [35]: 7860 nM | GI50 [36]: 515 nM | TGI [36]: 1960 nM | GI50 [37]: 120 nM | TGI [37]: 5030 nM | GI50 [38]: 318 nM | TGI [38]: 1610 nM | GI50 [39]: 1860 nM | TGI [39]: 6280 nM | GI50 [40]: 281 nM | TGI [40]: 1320 nM | GI50 [41]: 253 nM | TGI [41]: 748 nM | GI50 [42]: 234 nM | TGI [42]: 753 nM | GI50 [43]: 1320 nM | TGI [43]: 3250 nM | GI50 [44]: 369 nM | TGI [44]: 2500 nM | GI50 [45]: 318 nM | TGI [45]: 4570 nM | GI50 [46]: 246 nM | TGI [46]: 666 nM | GI50 [47]: 412 nM | TGI [47]: 2000 nM | GI50 [48]: 245 nM | TGI [48]: 1480 nM | GI50 [49]: 528 nM | TGI [49]: 5240 nM | GI50 [50]: 274 nM | TGI [50]: 1770 nM | GI50 [51]: 2580 nM | TGI [51]: 61800 nM | GI50 [52]: 160 nM | TGI [52]: 373 nM | GI50 [53]: 238 nM | TGI [53]: 926 nM | GI50 [54]: 3430 nM | TGI [54]: 17800 nM | GI50 [55]: 272 nM | TGI [55]: 2480 nM | GI50 [56]: 538 nM | TGI [56]: 2130 nM | GI50 [57]: 226 nM | TGI [57]: 695 nM | GI50 [58]: 238 nM | TGI [58]: 702 nM
